The source of these data is paper PMC12621175, “Scaffold Fusion and SAR Transfer with a Chemical Language Model Generates Novel Liver X Receptor Modulators” (Journal of Medicinal Chemistry, 2025).

For experiment [1], the target named is T1, RORγ (NR1F3) (Homo sapiens, UniProt P51449).
T1 construct: coding for the hinge region, and LBD of the canonical isoform of the respective nuclear receptor; expressed in transfected cells; host or cells: HEK293T
T1 sequence (P51449 269-508 limits assumed): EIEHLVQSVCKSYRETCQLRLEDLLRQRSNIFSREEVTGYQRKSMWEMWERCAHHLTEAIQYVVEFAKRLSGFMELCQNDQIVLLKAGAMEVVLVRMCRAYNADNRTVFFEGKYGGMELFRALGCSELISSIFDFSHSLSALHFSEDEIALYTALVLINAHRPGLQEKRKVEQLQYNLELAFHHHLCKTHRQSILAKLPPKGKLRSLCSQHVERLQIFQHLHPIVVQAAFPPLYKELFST
The experiment is described as follows: Gal4-RORγ hybrid reporter gene assay (off-target profiling). The following applies: compared with T0901317. The experiment is classed as cell-based. From the text:
For the hybrid reporter gene assays, the previously reported Gal4-fusion receptor plasmids pFA-CMV-hRORα-LBD, pFA-CMV-hRORβ-LBD, pFA-CMV-hRORγ-LBD, pFA-CMV-hLXRα-LBD, pFA-CMV-hLXRβ-LBD, pFA-CMV-hFXR-LBD, pFA-CMV-hPXR-LBD, and pFA-CMV-hRXRα-LBD, coding for the hinge region, and LBD of the canonical isoform of the respective nuclear receptor were used. pFR-Luc (Stratagene) was used as the reporter plasmid, and pRL-SV40 (Promega) was used in all assays for the normalization of transfection efficiency and cell growth. pECE-SV40-Gal4-VP16 was a gift from Lea Sistonen (Addgene plasmid #71728). The LXR-responsive reporter ABCA1-pGL3 was used for the full-length reporter gene assay.
The day before transfection, HEK293T cells were seeded in 96-well plates (4 × 10^4 cells/well). Before transfection, the medium was changed to Opti-MEM without any supplements. […] Luminescence was measured with a Spark 10 M luminometer (Tecan Deutschland GmbH). […] EC50/IC50 values and the standard errors thereof were calculated with the mean fold activation values by OriginPro, Version 2025 (OriginLab Corporation, Northampton, MA, USA), fitting a dose–response curve with a variable Hill slope (Levenberg–Marquardt algorithm). […]
For orientation: A reporter such as luciferase makes a cellular process visible.

Experiment [2] concerns HepG2 cells. As to the kind of experiment: lipolysis assay after steatosis induction with oleic and palmitic acid (Oil Red O). The following applies: 30 μM, 72 h; HepG2 pretreated 24 h with oleic acid (66.7 μM) and palmitic acid (33.3 μM). The experiment is classed as cell-based. The method, then:
HepG2 cells were seeded in collagen-coated 96-well plates at a density of 10^4 cells per well and incubated for 24 h. For the lipolytic mode, the cells were pretreated for additional 24 h with 66.7 μM oleic acid and 33.3 μM palmitic acid in culture medium with 1% bovine serum albumin (BSA). The cells were then treated with DMSO (0.1%) alone or in combination with test compounds in the culture medium. After 72 h, the cells were washed with PBS (2 × 50 μL) and fixed with 10% formalin solution (50 μL) for 15 min. After removal of the fixative, the cells were washed with H2O (2 × 50 μL), followed by 50 μL of 60% iPrOH and incubated with 50 μL Oil Red O solution (0.3% in 60% iPrOH) for 10 min to stain neutral lipids. The cells were washed quickly with 50 μL of 60% iPrOH and 2 × 50 μL of PBS. Microscopic images were taken using a 40x objective on a BZ-X810 microscope (KEYENCE, Frankfurt, Germany). Images were analyzed using ImageJ software (v1.54) according to a literature method.

Entries after “also recorded” stand apart in the source; their conditions may differ.

With `CCN(C(=O)c1ccccc1)c1ccc(C(O)(C(F)(F)F)C(F)(F)F)cc1` [Compound 1, N-Ethyl-N-(4-[1,1,1,3,3,3-hexafluoro-2-hydroxypropan-2-yl]phenyl)benzamide], the RORγ activity entry in experiment [1] is “reduced activity; also recorded: weaker inverse RORγ agonist”.

On to `CS(=O)(=O)c1cccc(-c2ccc(CN(Cc3cccc(C(F)(F)F)c3Cl)CC(c3ccccc3)c3ccccc3)cc2)c1` [Compound 3, N-(2-Chloro-3-[trifluoromethyl]benzyl)-N-([3′-{methylsulfonyl}-{1,1′-biphenyl}-4-yl]methyl)-2,2-diphenylethan-1-amine], for which, in experiment [2], the “lipolytic, antisteatotic activity” value is “displayed lipolytic, antisteatotic activity; also recorded: stimulated lipolysis”.
